Measurements reported in paper PMC5909127, “Optimization of a “bump-and-hole” approach to allele-selective BET bromodomain inhibition” (Chemical Science, 2018).

Columns and labels:
Test in all cases: kinase Express Screen
Assay type in all cases: biochemical
TAK1 = TAK1 (Homo sapiens, UniProt O43318)
Procedure: (§1) Kinase Remaining activity
(§2) Table S9. 9-ME-1 Kinase Screen
(§3) Activity of panel of human kinases following treatment with 1 µM (2R, 3S)-7. Dundee MRC-PPU Express Screen
(§4) (http://www.kinase-screen.mrc.ac.uk/services/express-screen)

GSK3b = GSK3b (Homo sapiens, UniProt P49841)
Chain of GSK3b (P49841 whole entry): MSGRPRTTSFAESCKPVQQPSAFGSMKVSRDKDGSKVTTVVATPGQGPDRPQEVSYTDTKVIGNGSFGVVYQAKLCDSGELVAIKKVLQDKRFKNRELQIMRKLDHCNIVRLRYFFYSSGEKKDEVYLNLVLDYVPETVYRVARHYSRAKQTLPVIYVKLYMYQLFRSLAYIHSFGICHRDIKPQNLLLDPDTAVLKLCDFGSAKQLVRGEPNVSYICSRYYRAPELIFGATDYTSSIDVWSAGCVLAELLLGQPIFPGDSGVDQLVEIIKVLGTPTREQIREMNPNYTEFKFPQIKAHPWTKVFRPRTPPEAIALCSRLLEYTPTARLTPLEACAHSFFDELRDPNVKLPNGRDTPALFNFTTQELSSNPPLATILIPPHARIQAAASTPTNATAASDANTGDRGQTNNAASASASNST
Procedure: as §1, §2, §3, §4

NEK6 = NEK6 (Homo sapiens, UniProt Q9HC98)
Procedure: as §1, §2, §3, §4

CK2 = CK2 (Homo sapiens, UniProt P68400)
Procedure: as §1, §2, §3, §4

PIM1 = PIM1 (Homo sapiens, UniProt P11309)
Procedure: as §1, §2, §3, §4

HIPK2 = HIPK2 (Homo sapiens, UniProt Q9H2X6)
Chain of HIPK2 (Q9H2X6 whole entry): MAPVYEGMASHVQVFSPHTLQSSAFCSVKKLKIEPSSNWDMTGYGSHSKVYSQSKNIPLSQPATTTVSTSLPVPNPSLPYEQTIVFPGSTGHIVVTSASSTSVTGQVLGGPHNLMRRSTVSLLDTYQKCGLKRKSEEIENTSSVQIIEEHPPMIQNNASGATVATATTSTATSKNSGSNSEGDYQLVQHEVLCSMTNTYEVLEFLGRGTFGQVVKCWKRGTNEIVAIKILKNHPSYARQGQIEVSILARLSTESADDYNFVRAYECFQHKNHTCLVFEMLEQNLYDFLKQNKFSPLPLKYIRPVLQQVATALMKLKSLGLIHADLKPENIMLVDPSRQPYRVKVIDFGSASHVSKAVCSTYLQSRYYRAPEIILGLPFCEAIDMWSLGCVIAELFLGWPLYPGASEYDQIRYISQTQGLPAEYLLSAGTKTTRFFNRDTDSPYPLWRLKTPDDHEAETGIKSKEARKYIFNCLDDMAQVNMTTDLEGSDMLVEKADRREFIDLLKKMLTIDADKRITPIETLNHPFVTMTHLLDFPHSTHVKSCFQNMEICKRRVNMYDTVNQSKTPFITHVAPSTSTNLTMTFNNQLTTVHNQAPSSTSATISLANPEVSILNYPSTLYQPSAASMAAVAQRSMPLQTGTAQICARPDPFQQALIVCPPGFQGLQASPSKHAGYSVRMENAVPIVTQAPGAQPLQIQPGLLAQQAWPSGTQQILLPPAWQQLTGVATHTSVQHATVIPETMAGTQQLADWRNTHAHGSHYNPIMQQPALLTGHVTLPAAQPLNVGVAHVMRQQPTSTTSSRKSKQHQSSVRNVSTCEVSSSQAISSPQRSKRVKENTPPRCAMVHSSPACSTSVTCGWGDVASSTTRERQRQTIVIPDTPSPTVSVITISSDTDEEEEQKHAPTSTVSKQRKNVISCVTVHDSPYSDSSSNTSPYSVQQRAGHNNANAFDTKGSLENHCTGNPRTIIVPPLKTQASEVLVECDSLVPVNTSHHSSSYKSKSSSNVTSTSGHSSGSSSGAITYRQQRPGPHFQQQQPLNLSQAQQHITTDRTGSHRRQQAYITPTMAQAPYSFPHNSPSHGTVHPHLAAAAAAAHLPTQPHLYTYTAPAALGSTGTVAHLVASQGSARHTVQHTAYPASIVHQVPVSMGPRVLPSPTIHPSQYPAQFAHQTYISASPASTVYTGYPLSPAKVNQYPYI
Procedure: as §1, §2, §3, §4

Aurora B = Aurora B (Homo sapiens, UniProt Q96GD4)
Procedure: as §1, §2, §3, §4

PRK2 = PRK2 (Homo sapiens, UniProt Q16513)
Procedure: as §1, §2, §3, §4

TTK = TTK (Homo sapiens, UniProt P33981)
Procedure: as §1, §2, §3, §4

HER4 = HER4 (Homo sapiens, UniProt Q15303)
Procedure: as §1, §2, §3, §4

PAK4 = PAK4 (Homo sapiens, UniProt O96013)
Procedure: as §1, §2, §3, §4

MST2 = MST2 (Homo sapiens, UniProt Q13188)
Procedure: as §1, §2, §3, §4

IRAK4 = IRAK4 (Homo sapiens, UniProt Q9NWZ3)
Chain of IRAK4 (Q9NWZ3 whole entry): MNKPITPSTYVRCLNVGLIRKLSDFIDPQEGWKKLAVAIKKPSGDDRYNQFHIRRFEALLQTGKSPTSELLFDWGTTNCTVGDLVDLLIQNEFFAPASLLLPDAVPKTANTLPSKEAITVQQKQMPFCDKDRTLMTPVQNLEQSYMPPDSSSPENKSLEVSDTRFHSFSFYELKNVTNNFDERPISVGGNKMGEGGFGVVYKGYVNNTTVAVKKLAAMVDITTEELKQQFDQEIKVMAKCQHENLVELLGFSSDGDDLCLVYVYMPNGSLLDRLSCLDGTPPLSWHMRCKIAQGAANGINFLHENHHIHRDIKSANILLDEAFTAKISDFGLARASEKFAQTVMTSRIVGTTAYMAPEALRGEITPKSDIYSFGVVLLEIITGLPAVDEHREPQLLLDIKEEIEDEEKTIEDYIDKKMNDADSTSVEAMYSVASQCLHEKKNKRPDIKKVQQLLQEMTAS
Procedure: as §1, §2, §3, §4

BTK = BTK (Homo sapiens, UniProt Q06187)
Chain of BTK (Q06187 whole entry): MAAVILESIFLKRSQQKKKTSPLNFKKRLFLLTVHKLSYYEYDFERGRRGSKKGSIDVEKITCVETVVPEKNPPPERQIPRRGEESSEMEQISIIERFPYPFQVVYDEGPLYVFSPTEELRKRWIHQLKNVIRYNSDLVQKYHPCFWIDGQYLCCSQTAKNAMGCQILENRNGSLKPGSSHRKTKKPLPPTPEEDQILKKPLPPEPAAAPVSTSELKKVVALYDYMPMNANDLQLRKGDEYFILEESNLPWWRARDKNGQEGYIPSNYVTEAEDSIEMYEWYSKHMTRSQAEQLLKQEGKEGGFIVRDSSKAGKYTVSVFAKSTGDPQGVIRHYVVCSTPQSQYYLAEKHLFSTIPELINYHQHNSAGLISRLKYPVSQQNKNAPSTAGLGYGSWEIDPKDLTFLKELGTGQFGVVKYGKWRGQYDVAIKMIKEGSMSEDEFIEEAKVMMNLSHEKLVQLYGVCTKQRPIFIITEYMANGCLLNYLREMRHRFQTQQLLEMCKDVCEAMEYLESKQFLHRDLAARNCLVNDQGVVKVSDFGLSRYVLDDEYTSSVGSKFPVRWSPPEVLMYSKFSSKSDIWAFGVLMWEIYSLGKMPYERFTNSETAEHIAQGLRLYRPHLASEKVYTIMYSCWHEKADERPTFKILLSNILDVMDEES
Procedure: as §1, §2, §3, §4

MSK1 = MSK1 (Homo sapiens, UniProt O75582)
Procedure: as §1, §2, §3, §4

PKD1 = PKD1 (Homo sapiens, UniProt Q15139)
Procedure: as §1, §2, §3, §4

RIPK2 = RIPK2 (Homo sapiens, UniProt O43353)
Procedure: as §1, §2, §3, §4

SGK1 = SGK1 (Homo sapiens, UniProt O00141)
Procedure: as §1, §2, §3, §4

IGF-1R = IGF-1R (Homo sapiens, UniProt P08069)
Procedure: as §1, §2, §3, §4

AMPK (hum) = AMPK (hum) (Homo sapiens, UniProt Q13131)
Chain of AMPK (hum) (Q13131 whole entry): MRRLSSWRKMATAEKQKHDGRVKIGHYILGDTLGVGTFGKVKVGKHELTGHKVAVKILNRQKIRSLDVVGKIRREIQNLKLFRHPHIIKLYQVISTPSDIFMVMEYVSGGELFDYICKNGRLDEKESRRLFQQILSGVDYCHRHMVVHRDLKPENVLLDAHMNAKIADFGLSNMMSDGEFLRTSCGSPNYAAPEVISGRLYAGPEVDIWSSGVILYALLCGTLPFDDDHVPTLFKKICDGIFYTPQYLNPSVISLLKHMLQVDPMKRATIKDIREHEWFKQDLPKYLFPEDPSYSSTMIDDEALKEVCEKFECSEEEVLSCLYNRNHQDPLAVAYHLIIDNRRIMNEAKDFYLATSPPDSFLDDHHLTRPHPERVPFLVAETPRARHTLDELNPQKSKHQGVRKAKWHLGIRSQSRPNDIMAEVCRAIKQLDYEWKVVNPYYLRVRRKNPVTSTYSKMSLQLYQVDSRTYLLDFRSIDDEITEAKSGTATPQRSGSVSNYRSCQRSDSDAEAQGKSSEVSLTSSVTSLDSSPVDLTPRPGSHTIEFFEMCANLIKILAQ
Chain of AMPK (hum) (O43741 whole entry partner): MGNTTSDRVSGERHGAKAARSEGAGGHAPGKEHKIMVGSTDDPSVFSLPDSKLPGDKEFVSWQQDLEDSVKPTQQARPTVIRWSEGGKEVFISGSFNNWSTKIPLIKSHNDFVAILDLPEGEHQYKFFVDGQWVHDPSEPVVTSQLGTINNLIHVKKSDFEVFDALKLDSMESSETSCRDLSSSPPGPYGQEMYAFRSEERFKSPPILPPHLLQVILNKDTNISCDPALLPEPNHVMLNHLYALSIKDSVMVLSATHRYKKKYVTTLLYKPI
Chain of AMPK (hum) (P54619 whole entry partner): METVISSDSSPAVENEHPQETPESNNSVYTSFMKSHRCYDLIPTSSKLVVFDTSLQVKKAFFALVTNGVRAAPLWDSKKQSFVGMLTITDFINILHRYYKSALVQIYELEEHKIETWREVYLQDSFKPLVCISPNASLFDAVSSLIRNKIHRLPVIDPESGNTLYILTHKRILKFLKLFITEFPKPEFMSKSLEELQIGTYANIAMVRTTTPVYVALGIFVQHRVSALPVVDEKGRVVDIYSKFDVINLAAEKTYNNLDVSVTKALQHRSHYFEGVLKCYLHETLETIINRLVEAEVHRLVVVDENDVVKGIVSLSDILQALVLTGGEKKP
Procedure: as §1, §2, §3, §4

Lck = Lck (Homo sapiens, UniProt P06239)
Chain of Lck (P06239 whole entry): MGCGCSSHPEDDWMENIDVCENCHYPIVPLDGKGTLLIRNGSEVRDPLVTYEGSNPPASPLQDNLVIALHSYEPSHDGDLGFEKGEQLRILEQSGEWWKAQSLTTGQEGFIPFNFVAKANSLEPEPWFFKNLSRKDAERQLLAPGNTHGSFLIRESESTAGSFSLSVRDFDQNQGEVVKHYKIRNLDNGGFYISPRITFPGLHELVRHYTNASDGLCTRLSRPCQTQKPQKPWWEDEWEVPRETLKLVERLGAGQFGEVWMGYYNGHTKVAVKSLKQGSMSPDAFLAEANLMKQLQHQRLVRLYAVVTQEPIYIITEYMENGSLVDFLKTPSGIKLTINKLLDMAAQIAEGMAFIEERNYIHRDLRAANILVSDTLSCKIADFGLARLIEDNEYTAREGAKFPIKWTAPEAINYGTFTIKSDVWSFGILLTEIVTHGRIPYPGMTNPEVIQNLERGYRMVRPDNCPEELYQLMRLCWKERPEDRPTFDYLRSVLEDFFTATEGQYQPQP
Procedure: as §1, §2, §3, §4

MARK3 = MARK3 (Homo sapiens, UniProt P27448)
Procedure: as §1, §2, §3, §4

RSK1 = RSK1 (Homo sapiens, UniProt Q15418)
Procedure: as §1, §2, §3, §4

S6K1 = S6K1 (Homo sapiens, UniProt P23443)
Procedure: as §1, §2, §3, §4

MLK3 = MLK3 (Homo sapiens, UniProt Q16584)
Procedure: as §1, §2, §3, §4

Src = Src (Homo sapiens, UniProt P12931)
Chain of Src (P12931 whole entry): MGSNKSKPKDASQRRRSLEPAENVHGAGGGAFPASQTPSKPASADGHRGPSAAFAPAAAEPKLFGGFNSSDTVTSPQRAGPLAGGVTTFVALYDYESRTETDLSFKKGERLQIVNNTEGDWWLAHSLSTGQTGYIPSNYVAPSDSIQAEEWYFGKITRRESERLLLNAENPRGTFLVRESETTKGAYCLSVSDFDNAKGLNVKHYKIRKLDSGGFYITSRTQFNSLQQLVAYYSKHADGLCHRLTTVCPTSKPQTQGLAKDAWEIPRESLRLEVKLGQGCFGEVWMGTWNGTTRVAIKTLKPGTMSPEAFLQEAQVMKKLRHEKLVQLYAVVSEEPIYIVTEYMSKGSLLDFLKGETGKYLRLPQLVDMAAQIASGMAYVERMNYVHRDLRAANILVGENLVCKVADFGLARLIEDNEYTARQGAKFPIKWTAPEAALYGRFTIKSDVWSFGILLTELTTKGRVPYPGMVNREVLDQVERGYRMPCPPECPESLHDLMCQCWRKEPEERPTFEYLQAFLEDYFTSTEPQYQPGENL
Procedure: as §1, §2, §3, §4

TBK1 = TBK1 (Homo sapiens, UniProt Q9UHD2)
Procedure: as §1, §2, §3, §4

PLK1 = PLK1 (Homo sapiens, UniProt P53350)
Procedure: as §1, §2, §3, §4

DYRK1A = DYRK1A (Homo sapiens, UniProt Q13627)
Procedure: as §1, §2, §3, §4

EF2K = EF2K (Homo sapiens, UniProt O00418)
Procedure: as §1, §2, §3, §4

CAMKKb = CAMKKb (Homo sapiens, UniProt Q96RR4)
Procedure: as §1, §2, §3, §4

ROCK 2 = ROCK 2 (Homo sapiens, UniProt O75116)
Procedure: as §1, §2, §3, §4

SmMLCK = SmMLCK (Homo sapiens, UniProt Q15746)
Procedure: as §1, §2, §3, §4

PDK1 = PDK1 (Homo sapiens, UniProt O15530)
Procedure: as §1, §2, §3, §4

SRPK1 = SRPK1 (Homo sapiens, UniProt Q96SB4)
Procedure: as §1, §2, §3, §4

CK1δ = CK1δ (Homo sapiens, UniProt P48730)
Procedure: as §1, §2, §3, §4

PKBa = PKBa (Homo sapiens, UniProt P31749)
Procedure: as §1, §2, §3, §4

TrkA = TrkA (Homo sapiens, UniProt P04629)
Procedure: as §1, §2, §3, §4

VEG-FR = VEG-FR (Homo sapiens, UniProt P17948)
Procedure: as §1, §2, §3, §4

CHK2 = CHK2 (Homo sapiens, UniProt O96017)
Procedure: as §1, §2, §3, §4

JNK1 = JNK1 (Homo sapiens, UniProt P45983)
Procedure: as §1, §2, §3, §4

PKCa = PKCa (Homo sapiens, UniProt P17252)
Procedure: as §1, §2, §3, §4

JAK3 = JAK3 (Homo sapiens, UniProt P52333)
Procedure: as §1, §2, §3, §4

CAMK1 = CAMK1 (Homo sapiens, UniProt Q14012)
Procedure: as §1, §2, §3, §4

SYK = SYK (Homo sapiens, UniProt P43405)
Procedure: as §1, §2, §3, §4

COC(=O)[C@H](C)[C@@H]1N=C(c2ccc(Cl)cc2)c2ccc(OC)cc2-n2c(C)nnc21 [(2R,3S)-7]
remaining activity at 1 µM (TAK1): 108%
remaining activity at 1 µM (GSK3b): 95%
remaining activity at 1 µM (NEK6): 109%
remaining activity at 1 µM (CK2): 97%
remaining activity at 1 µM (PIM1): 106%
remaining activity at 1 µM (HIPK2): 99%
remaining activity at 1 µM (Aurora B): 94%
remaining activity at 1 µM (PRK2): 100%
remaining activity at 1 µM (TTK): 102%
remaining activity at 1 µM (HER4): 114%
remaining activity at 1 µM (PAK4): 104%
remaining activity at 1 µM (MST2): 118%
remaining activity at 1 µM (IRAK4): 114%
remaining activity at 1 µM (BTK): 96%
remaining activity at 1 µM (MSK1): 94%
remaining activity at 1 µM (PKD1): 78%
remaining activity at 1 µM (RIPK2): 103%
remaining activity at 1 µM (SGK1): 103%
remaining activity at 1 µM (IGF-1R): 93%
remaining activity at 1 µM (AMPK (hum)): 104%
remaining activity at 1 µM (Lck): 86%
remaining activity at 1 µM (MARK3): 94%
remaining activity at 1 µM (RSK1): 99%
remaining activity at 1 µM (S6K1): 93%
remaining activity at 1 µM (MLK3): 100%
remaining activity at 1 µM (Src): 82%
remaining activity at 1 µM (TBK1): 98%
remaining activity at 1 µM (PLK1): 89%
remaining activity at 1 µM (DYRK1A): 80%
remaining activity at 1 µM (EF2K): 97%
remaining activity at 1 µM (CAMKKb): 101%
remaining activity at 1 µM (ROCK 2): 88%
remaining activity at 1 µM (SmMLCK): 112%
remaining activity at 1 µM (PDK1): 97%
remaining activity at 1 µM (SRPK1): 79%
remaining activity at 1 µM (CK1δ): 93%
remaining activity at 1 µM (PKBa): 95%
remaining activity at 1 µM (TrkA): 98%
remaining activity at 1 µM (VEG-FR): 89%
remaining activity at 1 µM (CHK2): 107%
remaining activity at 1 µM (JNK1): 89%
remaining activity at 1 µM (PKCa): 96%
remaining activity at 1 µM (JAK3): 95%
remaining activity at 1 µM (CAMK1): 94%
remaining activity at 1 µM (SYK): 98%
